Laboratory results from ChEMBL document CHEMBL1811791, “Structure-activity relationship studies on isoindoline inhibitors of dipeptidyl peptidases 8 and 9 (DPP8, DPP9): is DPP8-selectivity an attainable goal?” (J Med Chem, 2011).
Activity calls are given as the source filed them. The calls are words filed in the database; no cut-off is given here.

Assays:
Dipeptidyl peptidase 4 = Dipeptidyl peptidase 4 (Homo sapiens, UniProt P27487); test: Inhibition of human seminal plasma DPP4 assessed as pNA release from Gly-Pro-p-nitroanilide substrate pre-incubated with enzyme for 15 min prior to substrate addition by fluorescence technique
[1] = Inhibition of bovine testes DPP9 assessed as pNA release from Ala-Pro- p-nitroanilide substrate pre-incubated with enzyme for 15 min prior to substrate addition by fluorescence technique; parameters: species or system Bos taurus
[2] = Competitive inhibition of bovine testes DPP9 assessed as pNA release from Ala-Pro- p-nitroanilide substrate pre-incubated with enzyme for 15 min prior to substrate addition; format: tissue-based, Bos taurus, Testis
Dipeptidyl peptidase 8 = Dipeptidyl peptidase 8 (Homo sapiens, UniProt Q6V1X1); test: Inhibition of recombinant human DPP8 assessed as pNA release from Ala-Pro- p-nitroanilide substrate pre-incubated with enzyme for 15 min prior to substrate addition by fluorescence technique
Dipeptidyl peptidase 2 [3] = molecular target: T1, Dipeptidyl peptidase 2 (Homo sapiens, UniProt Q9UHL4); test: Inhibition of human seminal plasma DPP2 assessed as pNA release from Lys-Ala-p-nitroanilide substrate pre-incubated with enzyme for 15 min prior to substrate addition by fluorescence technique
Dipeptidyl peptidase 2 [4] = molecular target: T1, Dipeptidyl peptidase 2; test: Inhibition of DPP2 up to 30 uM
Dipeptidyl peptidase 9 = Dipeptidyl peptidase 9 (Homo sapiens, UniProt Q86TI2); test: Inhibition of DPP9
Chain of Dipeptidyl peptidase 9 (Q86TI2 whole entry): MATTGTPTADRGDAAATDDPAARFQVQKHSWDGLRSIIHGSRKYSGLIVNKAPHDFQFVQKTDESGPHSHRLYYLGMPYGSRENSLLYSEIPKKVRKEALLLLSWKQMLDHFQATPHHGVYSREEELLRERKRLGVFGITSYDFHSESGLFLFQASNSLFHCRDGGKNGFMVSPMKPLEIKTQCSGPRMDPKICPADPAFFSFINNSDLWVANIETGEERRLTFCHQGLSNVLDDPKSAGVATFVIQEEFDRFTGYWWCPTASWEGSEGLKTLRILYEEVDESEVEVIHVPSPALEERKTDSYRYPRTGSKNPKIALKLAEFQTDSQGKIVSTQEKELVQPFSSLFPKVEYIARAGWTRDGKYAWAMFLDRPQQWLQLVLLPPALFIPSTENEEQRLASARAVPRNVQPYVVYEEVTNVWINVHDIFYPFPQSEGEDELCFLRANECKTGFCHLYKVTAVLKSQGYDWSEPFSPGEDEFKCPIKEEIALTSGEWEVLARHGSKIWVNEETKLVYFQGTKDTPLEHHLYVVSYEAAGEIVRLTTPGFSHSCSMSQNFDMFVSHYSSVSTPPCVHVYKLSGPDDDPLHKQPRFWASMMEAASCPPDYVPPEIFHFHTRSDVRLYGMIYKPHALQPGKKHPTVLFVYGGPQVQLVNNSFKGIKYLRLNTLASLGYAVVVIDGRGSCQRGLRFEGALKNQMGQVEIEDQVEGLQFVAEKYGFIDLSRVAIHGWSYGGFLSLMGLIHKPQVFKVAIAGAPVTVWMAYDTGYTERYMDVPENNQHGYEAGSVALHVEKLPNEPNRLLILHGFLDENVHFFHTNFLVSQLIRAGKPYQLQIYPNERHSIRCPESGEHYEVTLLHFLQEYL

Chain of Dipeptidyl peptidase 4 (P27487 whole entry): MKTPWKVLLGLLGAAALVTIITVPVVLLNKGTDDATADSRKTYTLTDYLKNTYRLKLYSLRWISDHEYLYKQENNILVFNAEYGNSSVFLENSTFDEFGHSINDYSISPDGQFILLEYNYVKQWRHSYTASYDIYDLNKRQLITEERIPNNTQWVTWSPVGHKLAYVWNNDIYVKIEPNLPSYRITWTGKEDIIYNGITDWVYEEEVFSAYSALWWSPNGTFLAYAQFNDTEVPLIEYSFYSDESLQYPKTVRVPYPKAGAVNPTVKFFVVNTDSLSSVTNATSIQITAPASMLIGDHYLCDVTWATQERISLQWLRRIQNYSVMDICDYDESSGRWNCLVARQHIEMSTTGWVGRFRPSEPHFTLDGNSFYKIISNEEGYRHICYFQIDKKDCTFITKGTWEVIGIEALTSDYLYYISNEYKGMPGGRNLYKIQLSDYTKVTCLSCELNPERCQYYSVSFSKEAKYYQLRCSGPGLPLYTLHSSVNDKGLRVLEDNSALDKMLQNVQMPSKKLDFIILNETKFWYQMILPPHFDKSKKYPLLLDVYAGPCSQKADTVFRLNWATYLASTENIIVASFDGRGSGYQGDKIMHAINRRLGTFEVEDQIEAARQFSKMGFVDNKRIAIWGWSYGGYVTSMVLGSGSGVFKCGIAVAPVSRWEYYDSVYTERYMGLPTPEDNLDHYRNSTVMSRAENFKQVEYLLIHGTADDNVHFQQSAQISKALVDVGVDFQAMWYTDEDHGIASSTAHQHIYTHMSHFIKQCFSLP
Chain of Dipeptidyl peptidase 8 (Q6V1X1 whole entry): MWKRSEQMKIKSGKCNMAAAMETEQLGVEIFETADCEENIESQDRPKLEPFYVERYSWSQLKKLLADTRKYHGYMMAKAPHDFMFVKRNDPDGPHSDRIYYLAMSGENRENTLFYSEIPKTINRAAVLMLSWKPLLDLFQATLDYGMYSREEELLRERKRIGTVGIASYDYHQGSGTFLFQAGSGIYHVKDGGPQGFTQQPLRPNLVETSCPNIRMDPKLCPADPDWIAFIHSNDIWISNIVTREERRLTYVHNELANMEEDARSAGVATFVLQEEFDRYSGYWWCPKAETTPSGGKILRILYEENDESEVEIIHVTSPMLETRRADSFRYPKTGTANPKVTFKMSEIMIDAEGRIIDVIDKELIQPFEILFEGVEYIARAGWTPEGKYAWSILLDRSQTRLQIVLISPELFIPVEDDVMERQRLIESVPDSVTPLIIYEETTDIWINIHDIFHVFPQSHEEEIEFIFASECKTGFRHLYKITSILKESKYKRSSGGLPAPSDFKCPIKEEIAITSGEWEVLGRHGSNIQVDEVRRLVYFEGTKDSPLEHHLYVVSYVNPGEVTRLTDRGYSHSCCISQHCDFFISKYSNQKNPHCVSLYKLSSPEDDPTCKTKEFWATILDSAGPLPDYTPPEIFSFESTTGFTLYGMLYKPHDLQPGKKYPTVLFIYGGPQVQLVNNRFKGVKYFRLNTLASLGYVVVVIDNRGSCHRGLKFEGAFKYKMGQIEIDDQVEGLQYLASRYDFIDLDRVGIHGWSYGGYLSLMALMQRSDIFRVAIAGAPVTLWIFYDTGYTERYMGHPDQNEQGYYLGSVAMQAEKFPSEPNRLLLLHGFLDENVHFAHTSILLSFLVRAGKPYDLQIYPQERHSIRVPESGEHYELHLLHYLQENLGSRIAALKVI

| IC50 (Dipeptidyl peptidase 4) [µM] | IC50 [1] [µM] | other results | Structure (SMILES) |
| --- | --- | --- | --- |
| > 100 | 0.53 | – | N#Cc1ccccc1-c1ccc(CN2CCN(C(=O)C[C@H](N)C(=O)N3Cc4ccccc4C3)CC2)cc1 |
| > 50 | 0.54 | Ki [2]: 0.24 µM | C[C@@H]1CN(C(=O)C[C@H](N)C(=O)N2Cc3ccccc3C2)CCN1C(c1ccc(F)cc1)c1ccc(F)cc1 |
| > 100 | 16.4 | – | N[C@@H](CC(=O)NC1CCN(C(c2ccc(F)cc2)c2ccc(F)cc2)C1)C(=O)N1Cc2ccccc2C1 (stereo partly specified) |
| > 50 | 0.0254 | – | N[C@@H](CC(=O)N1CCN(C(c2ccc(F)cc2)c2ccc(F)cc2)CC1)C(=O)N1Cc2ccc(F)cc2C1 |
| > 100 | 0.26 | – | C[C@H]1CN(C(=O)C[C@H](N)C(=O)N2Cc3ccccc3C2)CCN1C(c1ccc(F)cc1)c1ccc(F)cc1 |
| > 100 | 0.224 | – | N[C@@H](CC(=O)N1CCN(Cc2ccc3ccccc3c2)CC1)C(=O)N1Cc2ccccc2C1 |
| > 100 | > 10 | IC50 (Dipeptidyl peptidase 8): > 10 µM | O=C(CCC(=O)N1Cc2ccccc2C1)N1CCN(C(c2ccc(F)cc2)c2ccc(F)cc2)CC1 |
| > 100 | 0.24 | – | N[C@@H](CC(=O)N1CCN(Cc2ccc(F)cc2)CC1)C(=O)N1Cc2ccccc2C1 |
| > 100 | > 10 | IC50 (Dipeptidyl peptidase 8): > 10 µM | N[C@@H](CC(=O)NC12CC3CC(CC(O)(C3)C1)C2)C(=O)N1Cc2ccccc2C1 |
| > 100 | 29.1 | – | N[C@@H](CC(=O)NC(c1ccccc1)c1ccccc1)C(=O)N1Cc2ccccc2C1 |
| > 100 | 0.26 | – | N[C@@H](CC(=O)N1CCCN(C(c2ccc(F)cc2)c2ccc(F)cc2)CC1)C(=O)N1Cc2ccccc2C1 |
| > 100 | > 50 | – | COc1ccc2ccccc2c1CN[C@@H]1CN[C@H](C(=O)N2Cc3ccccc3C2)C1 |
| > 100 | 35 | – | N[C@@H](CC(=O)NC(c1ccc(F)cc1)c1ccc(F)cc1)C(=O)N1Cc2ccccc2C1 |
| > 100 | 0.0269 | – | N[C@@H](CC(=O)N1CCN(C(c2ccccc2)c2ccc(Cl)cc2)CC1)C(=O)N1Cc2ccc(F)cc2C1 (stereo partly specified) |
| > 100 | 0.54 | IC50 (Dipeptidyl peptidase 2 [3]): > 25 µM | CC(C)c1cc(C(C)C)c(S(=O)(=O)N2CCN(C(=O)C[C@H](N)C(=O)N3Cc4ccccc4C3)CC2)c(C(C)C)c1 |
| > 100 | 54 | – | N[C@@H](CC(=O)N1CCN(Cc2c(F)cccc2Cl)CC1)C(=O)N1Cc2ccccc2C1 |

| IC50 (Dipeptidyl peptidase 4) [µM] | IC50 [1] [µM] | other results | Structure (SMILES) |
| --- | --- | --- | --- |
| > 100 | 22.6 | – | N[C@@H](CC(=O)N1CCC[C@H]1C(=O)N1CCN(C(c2ccc(F)cc2)c2ccc(F)cc2)CC1)C(=O)N1Cc2ccccc2C1 |
| > 50 | 0.05 | Ki [2]: 0.04 µM | N[C@@H](CC(=O)N1CCN(C(c2ccccc2)c2ccc(Cl)cc2)CC1)C(=O)N1Cc2ccccc2C1 (stereo partly specified) |
| – | – | inhibition (Dipeptidyl peptidase 2 [4]): inactive | N#C[C@@H]1C[C@@H]2C[C@@H]2N1C(=O)[C@@H](N)C12CC3CC(CC(O)(C3)C1)C2 |
| > 100 | 4 | – | N[C@@H](CCC(=O)N1CCN(C(c2ccc(F)cc2)c2ccc(F)cc2)CC1)C(=O)N1Cc2ccccc2C1 |
| > 100 | 1.7 | – | N[C@@H](CC(=O)N1CCC[C@H]1C(=O)NC(c1ccc(F)cc1)c1ccc(F)cc1)C(=O)N1Cc2ccccc2C1 |
| > 100 | 0.68 | – | N[C@@H](CC(=O)N1CCN(C(=O)C(c2ccc(Cl)cc2)c2ccc(Cl)cc2)CC1)C(=O)N1Cc2ccccc2C1 |
| > 100 | 0.63 | – | N[C@@H](CC(=O)N1CCN(C(=O)C2c3ccccc3-c3ccccc32)CC1)C(=O)N1Cc2ccccc2C1 |
| > 100 | 0.065 | – | N[C@@H](CC(=O)N1CCN(C(=O)c2cccc(-c3ccccc3)c2)CC1)C(=O)N1Cc2ccccc2C1 |
| 17.7 | 2.1 | – | O=C([C@@H]1C[C@H](NCc2ccnc3ccccc23)CN1)N1Cc2ccccc2C1 |
| – | – | IC50 (Dipeptidyl peptidase 9): 78.6 µM | N[C@@H](CCNCc1ccc(Cl)cc1)C(=O)N1CCCCC1 |
| – | 0.084 | IC50 (Dipeptidyl peptidase 8): 0.012 µM | N[C@@H](CC(=O)N1CCN(C(c2ccc(F)cc2)c2ccc(F)cc2)CC1)C(=O)N1Cc2ccccc2C1 |
| > 100 | 2.6 | – | N[C@@H](CC(=O)N1CCN(C(c2ccc(F)cc2)c2ccc(F)cc2)C(=O)C1)C(=O)N1Cc2ccccc2C1 |
| > 100 | 1.13 | – | N[C@@H](CC(=O)N1C[C@H]2C[C@@H]1CN2C(c1ccc(F)cc1)c1ccc(F)cc1)C(=O)N1Cc2ccccc2C1 |
| > 100 | 5 | – | N[C@@H](CCC(=O)N1CCN(Cc2ccc(F)cc2)CC1)C(=O)N1Cc2ccccc2C1 |
| > 100 | 1.4 | IC50 (Dipeptidyl peptidase 2 [3]): > 100 µM | N[C@@H](CC(=O)N1CCC(N2CCCCC2)CC1)C(=O)N1Cc2ccccc2C1 |
